# Measured values published in article PMC12607321, “Sumac Polyphenols as Pan-Herpesvirus Inhibitors” (International Journal of Molecular Sciences, 2025).
# Values joined by “and” are separate entries in the source; they are usually repeats but may differ in a detail not shown here. Identical values can stand only once. Like-named read-outs stand apart in the source and are kept apart here.
# Legend:
# [1] = tested on: HIV-1 (HIVIIIB); assay: microbe, parasite or virus in culture; format: cell-based; conditions: Human immunodeficiency virus 1, MT4; HIV-1 IIIB in MT-4 cells
# [2] = in vitro; conditions: human
# [3] = tested on: CMV (strain AD169); assay: Anti-CMV, post-inoculation setup: inhibition of intracellular replication (cells stained for viral proteins) in HELF; format: cell-based, human cytomegalovirus
# [4] = tested on: CMV (strain AD169); assay: Anti-CMV, post-inoculation setup: inhibition of infectious virus production (plaques from conditioned medium) in HELF; format: cell-based, human cytomegalovirus
# [5] = tested on: CMV (strain AD169); assay: Anti-CMV, pre-inoculation setup (plaques) in HELF; format: cell-based, human cytomegalovirus
# [6] = tested on: EBVB95-8; assay: Inhibition of EBV replication in B95-8 cells (EBV genomic DNA, real-time PCR); format: cell-based, Epstein–Barr virus; conditions: for IC50: human gammaherpesvirus 4, B-95-8, 48 h, read-out: IC50, Inhibition on EBV Replication
# [7] = Cytotoxicity (MTT) in B95-8 cells; format: cell-based, cotton-top tamarin (Saguinus oedipus); conditions: cotton-top tamarin (Saguinus oedipus)
# Description: (§1) In each virus–cell system, cytotoxicity ranges were determined for polyphenols and reference compounds using MTT assay. Half-maximal cytotoxic concentrations (CC50) were determined from the curves of the dependence of the proportion of cells retaining viability after incubation with the compound (relative to the number of cells incubated in the absence of the compound) on its concentration, using nonlinear regression equations (4 parameters).
# (§2) To assess cytotoxicity, B95-8 cells (5 × 10^5 per 1 mL) were incubated with polyphenols at 37 °C in an atmosphere of 5% CO2 for 72 h. The experiment was then carried out as described in Section 4.3.5.
# [8] = in vitro; conditions: human; remark: listed apart in the source
# [9] = tested on: influenza A virus/California/07/2009 (H1N1) pdm; assay: microbe, parasite or virus in culture; format: cell-based; conditions: for IC50: IAV H1N1pdm in MDCK cells
# [10] = in vitro; conditions: dog
# [11] = tested on: HSV-1L2; assay: Antiviral activity in Vero E6 cells infected with HSV-1 (cytopathic effect); format: cell-based
# [12] = tested on: HSV-2BH; assay: Antiviral activity in Vero E6 cells infected with HSV-2 (cytopathic effect); format: cell-based
# [13] = tested on: Vero E6 cells; assay: Cytotoxicity (MTT) in Vero E6 cells (HSV system); format: cell-based
# [14] = tested on: B95-8 cells; assay: Cytotoxicity (MTT) in B95-8 cells; format: cell-based, cotton-top tamarin (Saguinus oedipus); conditions: B95-8 cells, MTT, 72 h
# Description: as §1, §2
# [15] = tested on: MDCK cells; conditions: MTT
# [16] = Cytotoxicity (MTT) in Vero E6 cells (HSV system); format: cell-based; conditions: African green monkey
# [17] = tested on: SARS-CoV-2 (HCoV-19/Russia/Moscow-PMVL-12/2020, EPI_ SL_572398); assay: microbe, parasite or virus in culture; format: cell-based; conditions: for IC50: Severe acute respiratory syndrome coronavirus 2, Vero C1008; for Δ(lgTCID50)max: maximum difference in virus titers, Vero E6 cells
# [18] = Cytotoxicity (MTT) in Vero E6 cells (SARS-CoV-2 system); format: cell-based; conditions: African green monkey
# Description: First, we performed biological testing of Rutan and geraniin against IAV and SARS-CoV-2. […] In addition, we evaluated geraniin against SARS-CoV-2 (in Vero E6 cells), and HIV-1 (in MT-4 cells) to confirm its activity. In all experiments three parameters were determined: concentrations of a drug that suppressed virus replication (IC50) or decreased cell viability (CC50) by 50% as well as their ratio—the selectivity index (SI, CC50/IC50 [123]).
# as §1
# [19] = tested on: CMVTowne strain; design: method as in ref 35 (Kim et al.); conditions: human foreskin fibroblasts, ref 35 (Kim et al.); cited from earlier work
# [20] = Cytotoxicity (MTT) in HELF cells; conditions: human
# [21] = tested on: IAV; conditions: cited from earlier work
# [22] = tested on: SARS-CoV-2; design: method as in doi:10.2139/ssrn.4000447; conditions: geraniin isolated from Elaeocarpus sylvestris; cited from earlier work
# [23] = tested on: HIV-1; design: method as in ref 103 (Notka et al.); conditions: ref 103 (Notka et al.); cited from earlier work
# [24] = Human betaherpesvirus 5, post-inoculation setup, CMV AD169 in HELF
# [25] = Influenza A virus, H1N1, read-out: IC50
# [26] = Human alphaherpesvirus 1, Vero C1008, HSV-1L2, Vero E6, 0.1 PFU/cell, read-out: IC50
# [27] = Human alphaherpesvirus 2, Vero C1008, HSV-2BH, Vero E6, 0.1 PFU/cell, read-out: IC50
# [28] = Human betaherpesvirus 5, AD169, HELF
compound,measurement,setting,value
"Cc1cn([C@H]2C[C@H](N=[N+]=[N-])[C@@H](CO)O2)c(=O)[nH]c1=O [Azidothymidine, reference compound]",IC50,[1],0.002 µg/mL
same,CC50,[2],3.6 µg/mL
"Nc1nc(O)c2ncn(COC(CO)CO)c2n1 [Ganciclovir, reference compound]",IC50,[3]; [24],0.22 µg/mL
same,IC50,[4]; [24],< 0.1 µg/mL
same,"SI, Pre-Inoculation Setup","[5]; pre-inoculation setup, CC50/IC50",No activity
same,"IC50, Pre-Inoculation Setup","[5]; pre-inoculation setup, CMV AD169 in HELF",No activity
same,IC50,[6],100 µg/mL
same,CC50 at 72 h,[7],> 1000 µg/mL
same,CC50 at 72 h,[8],185 µg/mL
"CCOC(=O)C1=C[C@@H](OC(CC)CC)[C@H](NC(C)=O)[C@@H](N)C1 [Oseltamivir, reference compound]",Δ(lgTCID50)max,[9],6.0
same,IC50,[9]; [25],0.02 µg/mL
same,CC50,[10],> 10 µg/mL
"2,4-bis-O-galloyl-1,3,6-tri-O-galloyl-β-D-glucose [R7]",Δ(lgTCID50)max,[9],2.75
same,IC50,[9],2.13 µg/mL
same,IC50,[11],5.95 µg/mL
same,IC95,[11],8.32 µg/mL
same,IC50,[12],8.32 µg/mL
same,IC95,[12],31.25 µg/mL
same,CC50,[13],165.00 µg/mL
same,CC50,[14],33 µg/mL
same,CC50,[15],191.01 µg/mL
"O=C(OC[C@H]1O[C@@H](OC(=O)c2cc(O)c(O)c(O)c2)[C@H](OC(=O)c2cc(O)c(O)c(OC(=O)c3cc(O)c(O)c(O)c3)c2)[C@@H](OC(=O)c2cc(O)c(O)c(OC(=O)c3cc(O)c(O)c(O)c3)c2)[C@@H]1OC(=O)c1cc(O)c(O)c(OC(=O)c2cc(O)c(O)c(O)c2)c1)c1cc(O)c(O)c(O)c1 [R8, 2,3,4-bis-O-galloyl-1,6-di-O-galloyl-β-D-glucose]",Δ(lgTCID50)max,[9],4.25
same,IC50,[9],0.8 µg/mL
same,IC50,"[11]; HSV-1L2, Vero E6, 0.1 PFU/cell",10.0 µg/mL
same,IC95,"[11]; HSV-1L2, Vero E6, 0.1 PFU/cell",31.25 µg/mL
same,IC50,"[12]; HSV-2BH, Vero E6, 0.1 PFU/cell",31.25 µg/mL
same,IC95,"[12]; HSV-2BH, Vero E6, 0.1 PFU/cell",62.5 µg/mL
same,CC50,[13],106.00 µg/mL
same,CC50,[14],>20 µg/mL
same,CC50,[15],233 µg/mL
"O=C(O)P(=O)(O)O [Foscarnet, reference compound]",IC95,"[11]; HSV-1L2, Vero E6, 0.1 PFU/cell",62.5 µg/mL
same,IC50,[11]; [26],15.6 µg/mL
same,IC95,"[12]; HSV-2BH, Vero E6, 0.1 PFU/cell",31.25 µg/mL
same,IC50,[12]; [27],7.8 µg/mL
same,CC50,[16],> 125 µg/mL
"O=C(OC[C@H]1O[C@@H](OC(=O)c2cc(O)c(O)c(O)c2)[C@H](OC(=O)c2cc(O)c(O)c(O)c2)[C@@H](OC(=O)c2cc(O)c(O)c(OC(=O)c3cc(O)c(O)c(O)c3)c2)[C@@H]1OC(=O)c1cc(O)c(O)c(O)c1)c1cc(O)c(O)c(O)c1 [R6, 3-bis-O-galloyl-1,2,4,6-tetra-O-galloyl-β-D-glucose]",Δ(lgTCID50)max,[9],1.0
same,IC50,[9],>50 µg/mL
same,IC50,"[11]; HSV-1L2, Vero E6, 0.1 PFU/cell",25.0 µg/mL
same,IC95,"[11]; HSV-1L2, Vero E6, 0.1 PFU/cell",>25.0 µg/mL
same,IC50,"[12]; HSV-2BH, Vero E6, 0.1 PFU/cell",31.25 µg/mL
same,IC95,"[12]; HSV-2BH, Vero E6, 0.1 PFU/cell",50.0 µg/mL
same,CC50,[13],69.62 µg/mL
same,CC50,[14],>20 µg/mL
same,CC50,[15],93.13 µg/mL
"CC(C)(C)[C@H](NC(=O)C(F)(F)F)C(=O)N1C[C@H]2[C@@H]([C@H]1C(=O)N[C@H](C#N)C[C@@H]1CCNC1=O)C2(C)C [Nirmatrelvir, reference compound]",IC50,[17],0.1 µg/mL
same,Δ(lgTCID50)max,[17],6.0
same,CC50,[18],> 20 µg/mL
"O=C(OC[C@H]1O[C@@H](OC(=O)c2cc(O)c(O)c(O)c2)[C@H](OC(=O)c2cc(O)c(O)c(O)c2)[C@@H](OC(=O)c2cc(O)c(O)c(O)c2)[C@@H]1OC(=O)c1cc(O)c(O)c(O)c1)c1cc(O)c(O)c(O)c1 [R5, 1,2,3,4,6-penta-O-galloyl-β-D-glucose]",Δ(lgTCID50)max,[9],1.5
same,IC50,[9]; [25],8.85 µg/mL
same,IC95,[11],25.0 µg/mL
same,IC50,"[11]; Human alphaherpesvirus 1, Vero C1008, read-out: IC50",12.5 µg/mL
same,IC95,[12],25.0 µg/mL
same,IC50,"[12]; Human alphaherpesvirus 2, Vero C1008, read-out: IC50",12.5 µg/mL
same,CC50,[16],188 µg/mL
same,reduction of the number of infected HELF,[3],71% and 86%
same,IC50,[3]; [28],7.4 µg/mL
same,IC50,[4]; [28],6.4 µg/mL
same,IC50,[5]; [28],2.2 µg/mL
same,decrease of the level of intracellular viral DNA,"[6]; 10 μg/mL, 48 h, B95-8 cells",39 ± 5%
same,IC50,[6],> 10 µg/mL
same,CC50,[14],85 µg/mL
same,activity against CMV (in words),[19],failed to detect the activity
same,CC50,[10],86.3 µg/mL
same,CC50 at 72 h,[20],150 µg/mL
"O=C1O[C@H]2C3OC(=O)c4cc(O)c(O)c(O)c4-c4c(cc(O)c(O)c4O)C(=O)OC[C@H]2O[C@@H](OC(=O)c2cc(O)c(O)c(O)c2)[C@@H]3OC(=O)c2cc(O)c(O)c3c2[C@@H]2C1=CC(=O)[C@](O)(O3)C2(O)O [Geraniin, (1R,7R,26R,28S,29R,38R)-1,13,14,15,18,19,20,34,35,39,39-Undecahydroxy-2,5,10,23,31-pentaoxo-6,9,24,27,30,40-hexaoxaoctacyclo [34.3.1.0~4,38~.0~7,26~.0~8,29~.0~11,16~.0~17, 22~.0~32,37~]tetraconta-3,11,1 3,15,17,19,21,32,34,36-decaen-28-yl 3,4,5-trihydroxybenzoate]",Δ(lgTCID50)max,[9],4.5
same,IC50,[9]; [25],10.8 µg/mL
same,IC50,"[17]; SARS-CoV-2 in Vero E6 cells, read-out: IC50",5.2 µg/mL
same,Δ(lgTCID50)max,[17],4.75
same,CC50,[18],65.4 µg/mL
same,IC50,[1],1.6 µg/mL
same,IC95,"[11]; HSV-1L2, Vero E6, 0.1 PFU/cell",1.56 µg/mL
same,IC50,[11]; [26],1.2 µg/mL
same,IC95,"[12]; HSV-2BH, Vero E6, 0.1 PFU/cell",6.25 µg/mL
same,IC50,[12]; [27],0.39 µg/mL
same,CC50,[16],65.9 µg/mL
same,activity against CMV (in words),[3]; CMV AD169 in HELF,did not interfere
same,activity against EBV (in words),[6]; B95-8 cells,did not interfere
same,CC50 at 72 h,"[7]; B95-8 cells, MTT, 72 h, read-out: CC50",63 µg/mL
same,result for geraniin against IAV compared with IC50,[21]; ref 72 (Joo et al.),5.3 µg/mL
same,result for geraniin against IAV compared with IC50,[21]; ref 96 (Choi et al.),34 µg/mL
same,concentration range suppressing virus replication,[22],1 to 25 µg/mL
same,IC50,[23],0.46 µg/mL
same,CC50,[10],288 µg/mL
same,CC50,[2],41 µg/mL
